Measured values: article PMC9145754, “Novel Soloxolone Amides as Potent Anti-Glioblastoma Candidates: Design, Synthesis, In Silico Analysis and Biological Activities In Vitro and In Vivo” (Pharmaceuticals, 2022)

Legend:
B16 cells = experiment: MTT cytotoxicity assay, B16; type: cell-based, murine; conditions: Mus musculus, 24 h, read-out: IC50, Melanoma, B16
Experimental: In the first step of the study, we analyzed the cytotoxicity of novel soloxolone derivatives 1–12 in a panel of tumor cells, including human cervical carcinoma HeLa, human duodenal carcinoma HuTu-80 and murine melanoma B16 cells, as well as human non-transformed hFF3 foreskin fibroblasts. The cells were treated with derivatives for 24 h and cell viability was evaluated by 3-(4,5-dimethylthiazol-2-yl)-2,5-diphenyltetrazolium bromide (MTT) assay. SM was used as the reference compound.
(§1) The cells in the exponential growth phase were seeded in quadruplicate in 96-well plates at a density of 1 × 10^4 cells/well for HeLa, U87, U118, KELLY and Neuro2a cells; 1.5 × 10^4 cells/well for HuTu-80 cells; 2 × 10^4 cells/well for B16 cells; and 7 × 10^3 cells/well for hFF3 fibroblasts. Cells were incubated under standard conditions overnight followed by their treatment with the investigated compounds (1–20 µM) for 24 h. Then, 10 µL of MTT solution was added to the cells to a final concentration of 0.5 mg/mL and plates were placed under standard conditions for 3 h followed by an aspiration of MTT-containing medium and a dissolution of formazan crystals with 100 µL of DMSO. The absorbance of each well was read at test and reference wavelengths of 570 and 620 nm, respectively, on a Multiscan RC plate reader (Thermo LabSystems, Helsinki, Finland).

U87 cells = experiment: MTT cytotoxicity assay, U87; type: cell-based; conditions: Homo sapiens, U-87 MG, 24 h, read-out: IC50, Glioblastoma, U87
Experimental: To evaluate the antitumor activity of the synthesized soloxolone amides in brain tumor cells, the cytotoxicity of compounds 4–12, predicted as BBB-permeable (Figure 3), was further analyzed in human glioblastoma U87 and U118 cells, as well as human neuroblastoma KELLY and murine neuroblastoma Neuro2a cells.
as §1

U87 glioblastoma cells = experiment: Annexin V-APC/PI apoptosis assay, U87; type: cell-based, human; conditions: for U87 Q4-2 (right upper quadrant, late apoptotic cells): 24 h, control 5.9%
Experimental: To evaluate which form of cell death was induced by compound 12 in glioblastoma cells, its ability to stimulate apoptosis, necrosis or autophagy was examined.
(§2) To quantify the percentage of cells undergoing apoptosis, glioblastoma U87 and U118 cells were seeded in 6-well plates at 2.8 × 10^5 cells/well in complete growth medium and incubated at standard conditions overnight followed by treatment with 12 at 4 µM for 24 h. Thereafter, the cells were harvested by trypsinization (TrypLE Express (Gibco, USA)) and centrifugation at 400 g for 5 min, washed with PBS and stained with 5 µL of Annexin V-APC (Sony Biotechnology Inc., San Jose, CA, USA) and 10 µL of propidium iodide (PI) (Invitrogen, Waltham, MA, USA) for 15 min at room temperature in the dark. After the incubation time, the cells were analyzed using a NovoCyte Flow Cytometer (ACEA Biosciences Inc., San Diego, CA, USA). For each sample, 10,000 events were acquired.

U118 glioblastoma cells = experiment: Annexin V-APC/PI apoptosis assay, U118; type: cell-based, human; conditions: for apoptosis, % of U118 cells: 12 at 4 µM
Experimental: as §2

U118 cells [1] = experiment: Scratch assay (2D migration); type: cell-based, human; conditions: U118, 12 at 100 nM, 48 h
Experimental: (§3) To evaluate the ability of tryptamide 12 to suppress the migration potential of glioblastoma cells, two independent approaches were undertaken, including assessment of cell movement on a 2D surface (scratch assay) and through a trans-well membrane (CIM-Plate).
To assess the 2D motility of glioblastoma cells, U118 cells were seeded in triplicate in 6-well plates at a density of 8 × 10^5 cells/well and cultured to 80% confluence. Thereafter, the cell monolayers were scratched with 10 µL pipette tips and washed twice with PBS to remove floating cells and cell debris and treated with 12 at 100 nM for 48 h. At 0 h and 48 h, the scratched cell monolayers were imaged using a Primo Vert microscope with phase contrast optics (ZEISS, Oberkochen, Germany) equipped with a AxioCam ERc5s camera (ZEISS, Oberkochen, Germany). The wound closure rate was calculated using ImageJ software. In total, 4–5 regions on a single scratch were analyzed.

U118 cells [2] = experiment: Trans-well motility (CIM-Plate, xCELLigence); type: cell-based, human; conditions: U118, 12 at 100 nM, starting after 20 h
Experimental: as §3
To assess the trans-well motility of glioblastoma cells, U118 cells were seeded in quadruplicate at 2 × 10^4 cells/well in the upper chamber of a CIM-Plate in FBS-free DMEM in the presence or absence of 12 at 100 nM. To induce trans-well motility of the cells, DMEM containing 10% FBS was placed in the lower chamber of the CIM-Plate. After that, the electrical impedance of the sensor electrodes mounted at the lower side of the porous membrane separating the upper and lower chambers of the CIM-plate was further measured using an xCELLigence RTCA DP instrument (ACEA Biosciences Inc., San Diego, CA, USA) every 1 h for 48 h.

[3] = Toxicity assessment (body weight, organ indexes); type: in vivo, Balb/C nude mice
Experimental: (seven injections were performed in total) and brain tissue was collected 48 h after the last injection of 12 followed by a high-performance liquid chromatography–tandem mass spectrometry (HPLC–MS/MS) analysis of the obtained samples (Figure 3D). This treatment regimen was chosen due to its common usage in the evaluation of antitumor activity of various low-molecular weight compounds in xenograft murine models. […] Before the HPLC–MS/MS analysis, chromatographic conditions and mass spectrometer parameters for detecting both semisynthetic triterpenoid 12 and the internal standard in the multiple reaction monitoring (MRM) mode were optimized. The optimized parameters are given in Supplementary Table S1.
During the experiment, the general status of the animals and body weight was monitored. At the end of the experiment, organs were collected and organ indexes were calculated as (organ weight/body weight) × 100%.

CC1(C)C(=O)C(C#N)=C[C@]2(C)C3=CC(=O)[C@@H]4[C@@H]5C[C@@](C)(C(=O)NCCc6c[nH]c7ccccc67)CC[C@]5(C)CC[C@@]4(C)[C@]3(C)CC[C@@H]12 [compound 12]
IC50 (B16 cells): 1.5 ± 0.2 µM
IC50 (U87 cells): 1.9 ± 0.1 µM
U87 Q4-2 (right upper quadrant, late apoptotic cells) (U87 glioblastoma cells; 12 at 2 µM): 28%
U87 Q4-2 (right upper quadrant, late apoptotic cells) (U87 glioblastoma cells; 12 at 4 µM): 73.4%
necrotic cell death (left upper quadrant) (U87 glioblastoma cells; U87, 12 for 24 h): did not cause necrotic cell death
apoptosis, % of U118 cells (U118 glioblastoma cells; 6 h): 11.7%
apoptosis, % of U118 cells (U118 glioblastoma cells; 18 h): 34.4%
apoptosis, % of U118 cells (U118 glioblastoma cells; 24 h): 41.5%
number of necrotic cells (U118 glioblastoma cells; U118, different samples (2 and 4 µM; 6–24 h)): ≤ 10%
inhibition of 2D migration compared to the control (U118 cells [1]): two times
ability of cells to cross the porous membrane of the CIM-Plate (U118 cells [2]): significantly suppressed
organ indexes in experimental and control groups ([3]; U87 glioblastoma-bearing mice, 20 mg/kg i.p.): did not reveal significant differences
mouse body weight compared to untreated mice ([3]; nude mice, 50 mg/kg i.p., thrice a week for two weeks): did not reveal significant changes
